According to article PMC4012445, “Spirocyclic Drimanes from the Marine Fungus Stachybotrys sp. Strain MF347” (Marine Drugs, 2014):
Structures can show the parent of a compound that is named as a salt. Where two headings read alike, the source gives them in different places.

Experiments:
[1] = system: Bacillus subtilis (DSM 347); experiment: Antibiotic activity against Bacillus subtilis; assay type: cell-based; settings: DSM347, growth inhibition, 0.1–50 µM analyzed twice in duplicates, read-out: IC50, antibiotic activity, B. subtilis
Procedure: (§1) The antimicrobial activities of 1–13 against the bacterium Bacillus subtilis (DSM 347) and the human pathogenic yeast Candida albicans (DSM 1386) were determined according to Ohlendorf et al., 2012 [26].The bioassays using the clinically relevant bacterial strains Staphylococcus epidermidis (DSM 20044), the methicillin-resistant Staphylococcus aureus (MRSA) (DSM 18827), and Klebsiella pneumoniae DSM 30104 were performed as described by Silber et al., 2013 [27]. S. aureus and K. pneumoniae were investigated in the same manner as S. epidermidis. […] The concentration of the compounds used in the initial bioassays was 100 µM (antibiotic tests), 50 µM (cytotoxic tests), and 10 µM (enzymatic tests), respectively. […] Positive controls were carried out with chloramphenicol (bacteria), nystatin (yeast), clotrimazole (fungi), tamoxifen citrate (cell lines), rolipram (PDE-4B2), huperzine (AchE), and TDZD-8 (GSK-3β).

[2] = system: Staphylococcus epidermidis (DSM 20044); experiment: Antibiotic activity against Staphylococcus epidermidis; assay type: cell-based; settings: DSM20044, growth inhibition, 0.1–50 µM analyzed twice in duplicates, read-out: IC50, antibiotic activity, S. epidermidis
Procedure: as §1

[3] = system: methicillin-resistant Staphylococcus aureus (MRSA) (DSM 18827); experiment: Antibiotic activity against methicillin-resistant Staphylococcus aureus; assay type: cell-based; settings: read-out: IC50, S. aureus MRSA
Procedure: as §1

[4] = Cytotoxic activity against NIH-3T3; assay type: cell-based
Procedure: The concentration of the compounds used in the initial bioassays was 100 µM (antibiotic tests), 50 µM (cytotoxic tests), and 10 µM (enzymatic tests), respectively. […] Positive controls were carried out with chloramphenicol (bacteria), nystatin (yeast), clotrimazole (fungi), tamoxifen citrate (cell lines), rolipram (PDE-4B2), huperzine (AchE), and TDZD-8 (GSK-3β).

[5] = growth inhibition, 0.1–50 µM analyzed twice in duplicates
[6] = NIH-3T3 fibroblast cells, mouse fibroblasts cell line, 0.1–50 µM analyzed twice in duplicates, read-out: IC50, cytotoxic activity, NIH-3T3
[7] = human, HepG2 hepatocellular carcinoma cells

C[C@H]1CC[C@@H]2C(C)(C)[C@@H](O)[C@H](O)C[C@@]2(C)[C@]12Cc1c(O)cc3c(c1O2)CN(CCCCC(C(=O)O)N1Cc2c(cc(O)c4c2O[C@@]2(C4)[C@@H](C)CC[C@@H]4C(C)(C)[C@@H](O)[C@@H](O)C[C@]42C)C1=O)C3=O (stereo partly shown) [Compound 11, stachybocin B]
IC50 [1]: 1.77 µM | IC50 [2]: 4.44 µM | IC50 [3, 5]: 3.94 µM | IC50 [4, 6]: > 50 µM | IC50 (in vitro; [7]): > 50 µM

O=C(N[C@H](CO)[C@H](O)c1ccc([N+](=O)[O-])cc1)C(Cl)Cl [Chloramphenicol, chloramphenicol, reference compound]
IC50 [1]: 1.45 µM | IC50 [2]: 1.81 µM | IC50 [3]: 2.46 µM

CC/C(=C(\c1ccccc1)c1ccc(OCCN(C)C)cc1)c1ccccc1 [tamoxifen citrate, reference compound]
IC50 ([4]; mouse): 16.4 µM | IC50 (in vitro; human): 17.9 µM

CC(C)=CCC/C(C)=C/CC/C(C)=C/Cc1c(O)cc(C)c(C=O)c1O [Compound 13, ilicicolin B]
IC50 [1]: 1.06 µM | IC50 [2]: 3.18 µM | IC50 [3, 5]: 0.74 µM | IC50 [4, 6]: 30 µM | IC50 (in vitro; [7]): > 50 µM

CC1CCC2C(C)(C)C(O)CCC2(C)C12Cc1c(O)cc3c(c1O2)CN(C1OCc2cc(O)c4c(c21)OC1(C4)C(C)CCC2C(C)(C)C(O)CCC21C)C3=O (stereo not shown) [Compound 2, stachyin B]
IC50 [1]: 1.42 µM | IC50 [2]: 1.02 µM | IC50 [3, 5]: 1.75 µM | IC50 [4, 6]: 13 µM | IC50 (in vitro; [7]): 14.3 µM

C[C@H]1CC[C@@H]2C(C)(C)[C@@H](O)CC[C@@]2(C)[C@]12Cc1c(O)cc3c(c1O2)CN(CCCCC(C(=O)O)N1Cc2c(cc(O)c4c2O[C@@]2(C4)[C@@H](C)CC[C@@H]4C(C)(C)[C@@H](O)CC[C@]42C)C1=O)C3=O (stereo partly shown) [Compound 12, stachybocin A]
IC50 [1]: 2.03 µM | IC50 [2]: 2.84 µM | IC50 [3]: 3.71 µM | IC50 ([4]; mouse fibroblasts cell line, 0.1–50 µM analyzed twice in duplicates, read-out: IC50, cytotoxic activity, NIH-3T3): > 50 µM | IC50 (in vitro): > 50 µM
